{"source": "patent US20080167324A1", "about": "“Thiazolymethyl and Oxazolylmethyl Heteroaryl Derivatives” (priority 2005, published 2008)", "biological_target": "benzodiazepine site of the GABAA receptor", "assay": "Ligand binding assay (3H-Ro15-1788 displacement, purified rat cortical membranes)", "settings": "previously determined; used in the Cheng-Prusoff equation; read-out: Kd, binding dissociation constant of the radioligand", "data": [{"smiles": "CCOC(=O)c1ncn2c1CN(C)C(=O)c1cc(F)ccc1-2", "note": "[^3H-Ro15-1788]", "values": [{"measurement": "Kd", "result": 1, "unit": "nM"}]}]}
